The test system of this test is autologous CD3+ Pan-T cells (CD8+ and CD4+ T cells) with Ad5-transduced CD1c+ Dendritic Cells. Put plainly: Endogenous autologous normal donor restimulation assay (Ad5-transduced dendritic cells). It counts as cell-based, human. To be noted: Table 27, restimulation with overlapping 15-mer peptide pools, maximum across sixteen donors. As for the experimental part:
CD1c+ Dendritic Cells (DC) isolated from human normal PBMCs were thawed using media (IMDM (Gibco) supplemented with glutamine, HEPES, 5% human serum (Sigma), and 1× Pen-Strep). DC cells were resuspended in media supplemented with IL-4 (Peprotech, 80 ng/mL) and GM-CSF (Gibco, 80 ng/mL), plated in 6 well microplates, and rested overnight at 37° C. (5% CO2). The following day, DC cells were counted and plated in a 96 well round bottom microplate at a concentration of 30,000 viable cells per well. Ad5 vectors (Vector Biolabs) were dilute in media to an MOI (Multiplicity Of Infection) of 5000 based on Plaque Forming Units. Ad5 vectors for the CEF pool and a “null” were used as controls. DCs were transduced with Ad5 vectors overnight at 37° C. (5% CO2). The following day, the Ad5 vectors were washed off the plate by three sequential centrifugation/aspiration steps using sterile Phosphate Buffered Saline. After the final wash, transduced DCs were resuspended in 100 μL media. Autologous CD3+ Pan-T cells isolated from human normal PBMCs were thawed using media. Pan-T cells were added to the irradiated DCs at 300,000 viable cells per well (100 μL/well). Human IL-15 (Peprotech) was added to all wells at final concentration of 10 ng/mL.
Plates were incubated at 37° C. (5% CO2) for a total of 12 days. Media was refreshed every 2-3 days with IL-15 (10 ng/mL final concentration) and IL-2 (R&D systems, 10 IU/mL final concentration). On day 11 lyophilized peptides (15-mer overlapping peptides) were solubilized in 100% DMSO and pooled by neoantigen to between 5 mg/mL and 20 mg/mL. […]
On day 12, cells were stained for intracellular flow cytometry analysis. […] Cells were washed and resuspended in stain buffer and analyzed using a BD Celesta flow cytometer.
Flow cytometry cell staining analysis was completed using FlowJo v10. […] The CD8+ and CD4+ T cells were analyzed for TNFα/IFNγ expression and the frequency of double positive TNFα/IFNγ CD8+ and the frequency of double positive TNFα/IFNγ CD4+ T cells were recorded. Responses were assessed to be positive when the frequency of double positive TNFα/IFNγ CD8+ or TNFα/IFNγ CD4+ T cells due to stimulation with an experimental peptide pool was increased greater than or equal to 3-fold over the DMSO only negative control for that donor and at least 0.01%.
For three of the neoantigens, an Ad5 vector was designed to transduce normal Dendritic cells with the neoantigens. This assay assessed the ability of the endogenously expressed and presented neoantigens to activate autologous T cells following overlapping 15-mer peptide pools restimulation using the endogenous autologous normal donor restimulation assay described in Example 1 utilizing TNFα and IFNγ production by CD8^+ and CD4^+ T cells as a readout. […]

These results are taken from patent US20230035403A1, “Method For Determining Responsiveness To Prostate Cancer Treatment” (Janssen Biotech, Inc., priority 2020, published 2023).

For “YEAGMTLGGKILFFLFLLLPLSPFSLIF [Neoantigen P87]”, the “Maximum Fold Change Over Background CD4+ cells” value was 2.41, the “Maximum Fold Change Over Background CD8+ cells” value is on record as 2.47, the “Maximum Frequency of TNFα/IFNγ Double Positive CD4+ T cells” value amounted to 0.079 and the “Maximum Frequency of TNFα/IFNγ Double Positive CD8+ T cells” value stood at 0.39.
